The values below come from US5994629A, “Positive selection” (priority 1991, dated 1999).

The target of data set [1] is β-glucuronidase from E. coli (Escherichia coli, UniProt P05804). Briefly: Hydrolysis by β-glucuronidase (GUS), HPLC/TLC. It is filed as biochemical. The note with it: for Hydrolysis by β-glucuronidase (GUS), result in words: 50 mM sodium phosphate buffer pH 7.0, 37° C., HPLC/TLC. The protocol: […] […] This confirms the identity of the product as a conjugate of BA and β-D-glucuronic acid.
Sequence of β-glucuronidase from E. coli (P05804 whole entry, looked up): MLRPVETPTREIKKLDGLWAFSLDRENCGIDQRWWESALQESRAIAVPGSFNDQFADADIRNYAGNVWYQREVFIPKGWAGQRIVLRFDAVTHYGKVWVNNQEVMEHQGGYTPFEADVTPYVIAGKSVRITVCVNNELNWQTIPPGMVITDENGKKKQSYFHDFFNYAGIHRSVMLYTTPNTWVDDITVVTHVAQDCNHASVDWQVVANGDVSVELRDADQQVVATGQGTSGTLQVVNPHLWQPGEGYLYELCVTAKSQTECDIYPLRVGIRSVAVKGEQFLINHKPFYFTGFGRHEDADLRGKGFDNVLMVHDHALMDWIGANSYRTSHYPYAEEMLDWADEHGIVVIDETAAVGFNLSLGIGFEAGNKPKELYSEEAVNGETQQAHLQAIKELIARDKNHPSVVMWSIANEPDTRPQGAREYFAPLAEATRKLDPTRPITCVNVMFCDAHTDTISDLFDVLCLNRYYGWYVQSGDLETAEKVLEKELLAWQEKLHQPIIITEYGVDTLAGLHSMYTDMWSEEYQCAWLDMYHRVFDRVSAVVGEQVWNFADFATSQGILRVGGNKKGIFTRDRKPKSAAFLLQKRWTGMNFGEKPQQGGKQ
[…] The presence of hydrolysis products is then determined using HPLC and TLC.

Data set [2] relates to leaf discs of tobacco without (GUS-) introduced β-glucuronidase genes. It is filed as cell-based, Nicotiana tabacum 'Wisconsin 38'. The settings on record: test compounds at several concentrations up to 250 μM in MSO.
For data set [3], the system named is leaf discs of tobacco with (GUS+) introduced β-glucuronidase genes. It is filed as cell-based, Nicotiana tabacum 'Wisconsin 38'. The note with it: test compounds at several concentrations up to 250 μM in MSO.
The subject of data set [4] is sugar beet cotyledon explants. Briefly: Transformation of sugar beet, positive and negative selection. It is filed as cell-based. The settings on record: 400 mg/l kanamycin sulphate + 1 mg/l BAP (100 explants) or + 15 mg/l BA3GN (177 explants). An excerpt: Seeds were germinated for 4 days in darkness on a substrate containing 0.7 g/l of agarose and 2 g/l of sucrose. The seedlings were then transferred to a Nunc container containing 1/2×MSO substrate and cultured for 3 days in the light. The cotyledons were removed from the seedlings, and the cotyledon explants were then brushed on the petiole with a small brush containing an Agrobacterium suspension, the Agrobacterium containing 35S-NPTII and 35S-GUS (OD 660=0.1). The cotelydons were then co-cultivatedfor 4 days on a substrate containing 1/10 MSO substrate and 200 μM acetosyringone. […] The regenerated shoots were then transferred to containers containing the same substrate. After 52 days on this substrate all the shoots were transferred to MSO substrate supplemented with 800 mg/l carbenicillin, 25 mg/l vancomycin and 0.1 mg/l BA. After 14 days GUS assays as described in Example 3 were performed on the selected plant material.

The subject of data set [5] is hypocotyl explants of winter oil seed rape V486. The data set is described as follows: Transgenic callus from oilseed rape, winter type V486. The settings on record: 50 mg/l kanamycin sulphate. Type of data set: cell-based. As to the method: (§1) Experiments were performed as described in Example 11, although with certain modifications. The plant species used were the very recalcitrant breeding lines "V486" of winter oil seed rape and "S487" of summer oilseed rape. Seeds were sterilized and germinated as described in Example 16. Hypocotyls were used as explants and were inoculated and co-cultured as described in Example 11. After co-cultivation the explants were transferred to MSO substrate containing 0.1 mg/l naphthylacetic acid, 0.01 mg/l gibberellic acid (GA3), 500 mg/l carbenicillin, 50 mg/l kanamycin sulphate and 6.0 g/l agarose. The substrate contained in addition either 1 mg/l BA or 3.75, 7.5 or 15.0 mg/l BA3GN sodium salt. The pH was adjusted to 5.8. The Agrobacterium used contained in its T-DNA a GUS gene and a neomycinphosphotransferase II gene driven by 35S promoters. GUS assays were performed after 8 weeks and callus showing an intense blue staining in most of the callus cells was registered as being GUS.

Data set [6] concerns hypocotyl explants of oilseed rape. The data set is described as follows: Transgenic callus from oilseed rape, second section of Table 19. It is filed as cell-based. As to the method: as §1
Data set [7] deals with tobacco leaf disc containing an introduced β-glucuronidase gene. Briefly: Shoot regeneration with sterol glucuronides on tridemorph substrate. The note with it: sitosteryl glucuronide 12.5 mg/l and/or cholesteryl glucuronide 50 mg/l; tridemorph 0.1 mM and BA3GN sodium salt (5 mM); 30 days. Type of data set: cell-based.
The next data set deals with Wild type explants. The data set is described as follows: Regenerated shoots selected by compounds in addition to mannose, wild type. The note with it: genotype Wild type. It is filed as cell-based.
Data set [8] deals with explants with the mannose 6-phosphate isomerase gene from E. coli. Briefly: Regenerated shoots selected by compounds in addition to mannose, M-6-P-isomerase. It is filed as cell-based. The settings on record: genotype M-6-P-isomerase.
For data set [9], the target named is T1, GUS activity in plant tissue (Escherichia coli, UniProt P05804).
T1 construct: from tissue; host or cells: leaves of a number of plant species
T1 sequence (P05804 whole entry): as the sequence (P05804 whole entry, looked up) above
Briefly: Histological GUS reaction (X-gluc) in plant species with saccharo 1,4-lactone. Further: key: + Blue reaction; (+) Low frequency of GUS activity (faint blue reaction); 0 No reaction; n Not determined. It is filed as cell-based. The note with it: saccharo 1,4-lactone 10 mM, pH 3-8, transgenic (1), GUS gene from E. coli.

The subject of data set [10] is GUS activity in plant tissue. The description is as above. It is filed as cell-based. The note with it: saccharo 1,4-lactone 10 mM, pH 3-8.

On to `O=C([O-])[C@H]1O[C@@H](n2cnc(NCc3ccccc3)c3ncnc2-3)[C@H](O)[C@@H](O)[C@@H]1O.[Na+]`, for which the “Hydrolysis by β-glucuronidase (GUS), result in words” value in [1] is “virtually complete removal”. In addition, the “removal of the glucuronide by GUS” value in data set [1] (2500 Fishman units, 12 hours, 37° C., HPLC and TLC) is over 99%. Moreover, the “Shoot formation, GUS-” value in data set [2] was “+ ("+" means shoot formation at concentrations below 250 μM)”. Besides, in data set [3], the “Shoot formation, GUS+” value is given as “+ ("+" means shoot formation at concentrations below 250 μM)”. For the same compound, the “GUS+ Shoots” value in data set [4] came out at 4. The “GUS+ shoots (%)” value in [4] worked out at 2.3%. The “GUS+ callus per callus” value in [5] (BA3GN 3.75 mg/l) was 7.1%; in [5] (BA3GN 7.5 mg/l) it was 5.9%; in [5] (BA3GN 15.00 mg/l), 7.5%; in data set [6] (BA3GN 3.75 mg/l), 33.3%; in data set [6] (BA3GN 7.5 mg/l), 25.0%; in data set [6] (BA3GN 15.00 mg/l), 14.2%. In addition, the “GUS+ callus per explant” value came out at 1.4% in data set [5] (BA3GN 3.75 mg/l); 1.4% in data set [5] (BA3GN 7.5 mg/l); 2.3% in data set [5] (BA3GN 15.00 mg/l); 1.7% in data set [6] (BA3GN 3.75 mg/l); 2.3% in data set [6] (BA3GN 7.5 mg/l); 0.9% in [6] (BA3GN 15.00 mg/l). In addition, the Explants with callus in data set [5] (BA3GN 3.75 mg/l, 8 weeks) was found to be 19.0%; in [5] (BA3GN 7.5 mg/l) it was 23.0%; in data set [5] (BA3GN 15.00 mg/l) it was 30.6%; in data set [6] (BA3GN 3.75 mg/l, 50 mg/l kanamycin sulphate) it was 5.2%; in data set [6] (BA3GN 7.5 mg/l), 9.2%; in data set [6] (BA3GN 15.00 mg/l), 6.3%.
On to `O=C([O-])[C@H]1O[C@@H](n2cnc3c(NCc4ccccc4)ncnc32)[C@H](O)[C@@H](O)[C@@H]1O.[Na+]` [BA9GN sodium salt, 9-β-D-glucopyranuronosyl-6-benzylaminopurine, sodium salt], for which the “Hydrolysis by β-glucuronidase (GUS), result in words” value in data set [1] is reported as “no detectable production of BA”. The “production of BA after incubation with β-glucuronidase” value in data set [1] (18 hours at 37° C.) is recorded as under 1%. For the same compound, the “Shoot formation, GUS-” value in data set [2] is “- ("-" means no shoot formation at concentrations below 250 μM)”. The “Shoot formation, GUS+” value in [3] was “- ("-" means no shoot formation at concentrations below 250 μM)”. Further, the acid hydrolysis entry in the data set “Chemical stability” (1 mg/ml, 1M hydrochloric acid at 100° C. overnight, TLC) is listed as “acid-labile”.
Turning to `c1ccc(CNc2ncnc3nc[nH]c23)cc1` [BA, N^6 -benzyladenine], the “Shoot formation, GUS-” value in [2] is recorded as “+ ("+" means shoot formation at concentrations below 250 μM)”. The “Shoot formation, GUS+” value in data set [3] is “+ ("+" means shoot formation at concentrations below 250 μM)”. In addition, in [4], the “GUS+ Shoots” value is reported as 0 and the “GUS+ shoots (%)” value was determined as 0%. Besides, in data set [5] (BA 1 mg/l), the Explants with callus came out at 0%, the “GUS+ callus per callus” value is 0% and the “GUS+ callus per explant” value is 0%. Also, in [6] (BA 1 mg/l), the Explants with callus was determined as 0%, the “GUS+ callus per callus” value came to 0% and the “GUS+ callus per explant” value was found to be 0%.
Take `CC(C)CCC[C@@H](C)[C@H]1CC[C@H]2[C@@H]3CC=C4C[C@@H](O[C@@H]5O[C@H](C(=O)O)[C@@H](O)[C@H](O)[C@H]5O)CC[C@]4(C)[C@H]3CC[C@]12C` [Choesteryl-β-D-glucuronide, cholesteryl-β-D-glucuronide]: the “Shoots per leaf disc” value in [7] was found to be 0.3.
On to `N[C@@H]1C(O)O[C@H](CO)[C@@H](O)[C@@H]1O` (stereo partly drawn) [D-mannosamine], for which the “Number of regenerated shoots per explant” value in the data set on Wild type explants turned out to be 0; in data set [8], 0.8.
The like results for `O=P(O)(O)OC[C@H]1OC(O)[C@@H](O)[C@@H](O)[C@@H]1O` (stereo partly drawn) [D-mannose-6-phosphate] were, in that order, 0 and 0.7.
With `O=C(O)[C@@H](O)[C@H]1OC(=O)[C@H](O)[C@H]1O` [Saccharo 1,4-lactone], the “Histological GUS reaction” value is reported as “(+)” in [9] (Sugar beet); 0 in [9] (Tobacco); 0 in data set [10] (Oilseed rape); 0 in data set [10] (Oxalis, stem or petiole); 0 in [10] (Pea, stem or petiole); 0 in [10] (Rhubarb, stem or petiole). The “Histological GUS reaction” value in data set [10] (Sitka spruce, embryogenic callus) is 0; in data set [10] (Sugar beet, transgenic (2), NPT only) it was 0; in data set [10] (Sugar beet, wild type) it was 0; in data set [10] (Tobacco), 0; in data set [10] (Tobacco, transgenic (2), NPT only) it was 0; in data set [10] (Wheat, albino) it was 0. Besides, the “stability at the pH of the substrate” value in “Chemical stability” (equilibrium with saccharic acid) is reported as “not a stable compound”.
Consider `CC[C@H](CC[C@@H](C)[C@H]1CC[C@H]2[C@@H]3CC=C4C[C@@H](O[C@@H]5O[C@H](C(=O)O)[C@@H](O)[C@H](O)[C@H]5O)CC[C@]4(C)[C@H]3CC[C@]12C)C(C)C` [Sitosteryl-β-D-glucuronide, β-sitosteryl-β-D-glucuronidide], for which, in [7], the “Shoots per leaf disc” value turned out to be 2.8.
